Structures can show the parent of a compound that is named as a salt.
test system: IL-8 in THP-1 induced by MDP; assay: THP-1 cell assay, IL-8 ELISA after MDP; format: cell-based; settings: 10 nM
Procedure: Acute monoblastic and monocytic leukemia (THP-1) was obtained from ATCC (item NO. TIB-202™). The temperature of the sterile incubator is 37˜38° C., the osmotic pressure is 260˜320 mmol/L, the pH range is 7.2˜7.4, and the ratio of carbon dioxide gas is 5%.
Cells were seeded in 96-well plates. After an hour, cells were incubated with test compounds for 2 hours. MDP (10 μL) was added and incubated for 6 hours. The samples were centrifuged (3000 rmp/min) for 5 minutes. The concentration of IL-8 in the supernatants was detected by IL-8 ELISA.

Row | Structure (SMILES) | inhibition of IL-8 in THP-1 induced by MDP (in words)
1 | COc1cc2nncc(Nc3ccc4scnc4c3)c2cc1P(C)(C)=O [B2, (4-(benzo[d]thiazol-5-ylamino)-7-methoxycinnolin-6-yl)dimethylphosphine oxide] | no effect

same assay, conditions: Homo sapiens; test compounds 10 nM; THP-1, MDP induced

Row | Structure (SMILES) | inhibition at 0.01 µM [%]
2 | CP(C)(=O)c1cc2c(Nc3ccc4scnc4c3)ccnc2cc1OC1CCOC1 (stereo not shown) [A10] | 51
3 | Cn1cc(-c2cc3nccc(Nc4ccc5scnc5c4)c3cc2P(C)(C)=O)cn1 [A11, (4-(benzo[d]thiazol-5-ylamino)-7-(1-methyl-1H-pyrazol-4-yl)quinolin-6-yl)dimethylphosphine oxide] | 37
4 | CP(C)(=O)c1cc2c(Nc3ccc4scnc4c3)ccnc2cc1-c1cn[nH]c1 [A17] | 11
5 | CP(C)(=O)c1cc2c(Nc3ccc4scnc4c3)ccnc2cc1OC[C@@H](O)CO [A18, (S)-(4-(benzo[d]thiazol-5-ylamino)-7-(2,3-dihydroxypropoxy)quinolin-6-yl)dimethylphosphine oxide] | 12
6 | CP(C)(=O)c1cc2c(Nc3ccc4scnc4c3)ccnc2cc1OC[C@H](O)CO [A19] | 13
7 | [2H]C([2H])([2H])Oc1cc2nccc(Nc3ccc4scnc4c3)c2cc1P(C)(C)=O [A22] | 60
8 | COc1cc2ncc(F)c(Nc3ccc4scnc4c3)c2cc1P(C)(C)=O [A23, (4-(benzo[d]thiazol-5-ylamino)-3-fluoro-7-methoxyquinolin-6-yl)dimethylphosphine oxide] | 5
9 | Cc1noc(C)c1-c1cc2nccc(Nc3ccc4scnc4c3)c2cc1P(C)(C)=O [A27] | 37
10 | COc1cc2nccc(Nc3ccc4scnc4c3F)c2cc1P(C)(C)=O [A28] | 63
11 | CP(C)(=O)c1cc2c(Nc3ccc4scnc4c3F)ccnc2cc1OC1COC1 [A29] | 85
12 | COc1cc2nncc(Nc3ccc4scnc4c3)c2cc1P(C)(C)=O [B2, (4-(benzo[d]thiazol-5-ylamino)-7-methoxycinnolin-6-yl)dimethylphosphine oxide] | 0

biological target: RIP2 kinase (Homo sapiens (Human), UniProt O43353); assay: Binding affinity assay (Kd); settings: not given
Sequence (O43353 whole entry): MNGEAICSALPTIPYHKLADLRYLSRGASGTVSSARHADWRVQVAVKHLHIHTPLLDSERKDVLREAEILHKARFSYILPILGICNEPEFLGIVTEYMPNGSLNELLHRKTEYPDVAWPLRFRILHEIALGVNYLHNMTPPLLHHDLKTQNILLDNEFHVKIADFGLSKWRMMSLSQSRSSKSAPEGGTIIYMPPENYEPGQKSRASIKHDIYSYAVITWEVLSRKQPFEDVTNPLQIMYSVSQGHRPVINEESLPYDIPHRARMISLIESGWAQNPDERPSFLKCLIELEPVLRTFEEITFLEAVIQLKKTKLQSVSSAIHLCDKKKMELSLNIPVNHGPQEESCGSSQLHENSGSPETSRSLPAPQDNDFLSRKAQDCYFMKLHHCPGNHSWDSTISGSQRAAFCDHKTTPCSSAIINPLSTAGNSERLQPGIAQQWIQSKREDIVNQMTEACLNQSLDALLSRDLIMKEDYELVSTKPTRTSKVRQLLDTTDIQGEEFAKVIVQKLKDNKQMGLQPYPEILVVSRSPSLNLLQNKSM
Procedure: For most assays, kinase-tagged T7 phage strains were prepared in an E. coli host derived from the BL21 strain. E. coli were grown to log-phase and infected with T7 phage and incubated with shaking at 32° C. until lysis. The lysates were centrifuged and filtered to remove cell debris. The remaining kinases were produced in HEK-293 cells and subsequently tagged with DNA for qPCR detection. Streptavidin coated magnetic beads were treated with biotinylated small molecule ligands for 30 minutes at room temperature to generate affinity resins for kinase assays. The liganded beads were blocked with excess biotin and washed with blocking buffer (SeaBlock (Pierce), 1% BSA, 0.05% Tween 20, 1 mM DTT) to remove unbound ligand and to reduce non-specific binding. Binding reactions were assembled by combining kinases, liganded affinity beads, and test compounds in 1× binding buffer (20% SeaBlock, 0.17×PBS, 0.05% Tween 20, 6 mM DTT). Test compounds were prepared as 111× stocks in 100% DMSO. Kds were determined using an 11-point 3-fold compound dilution series with three DMSO control points. All compounds for Kd measurements are distributed by acoustic transfer (non-contact dispensing) in 100% DMSO. The compounds were then diluted directly into the assays such that the final concentration of DMSO was 0.9%. All reactions performed in polypropylene 384-well plate. Each was a final volume of 0.02 ml. The assay plates were incubated at room temperature with shaking for 1 hour and the affinity beads were washed with wash buffer (1×PBS, 0.05% Tween 20). The beads were then re-suspended in elution buffer (1×PBS, 0.05% Tween 20, 0.5 μM nonbiotinylated affinity ligand) and incubated at room temperature with shaking for 30 minutes. The kinase concentration in the eluates was measured by qPCR.
An 11-point 3-fold serial dilution of each test compound was prepared in 100% DMSO at 100× final test concentration and subsequently diluted to 1× in the assay (final DMSO concentration=1%). Most Kds were determined using a compound top concentration=30,000 nM. If the initial Kd determined was <0.5 nM (the lowest concentration tested), the measurement was repeated with a serial dilution starting at a lower top concentration.
Binding constants (Kds) were calculated with a standard dose-response curve using the Hill equation: […]
The Hill Slope was set to −1.
Curves were fitted using a non-linear least square fit with the Levenberg-Marquardt algorithm.

Row | Kd [nM] | affinity with RIP2 kinase (in words) | Structure (SMILES)
13 | 430 | – | CP(C)(=O)c1ccc2nccc(Nc3n[nH]c4ccc(F)cc34)c2c1 [A3]
14 | 89 | – | Cc1[nH]nc(Nc2ccnc3ccc(P(C)(C)=O)cc23)c1C [A4]
15 | 120 | – | CP(C)(=O)c1ccc2nccc(Nc3cc(O)ccc3F)c2c1 [A5]
16 | 1.8 | – | CP(C)(=O)c1cc2c(Nc3ccc4scnc4c3)ccnc2cc1OC1CCOC1 (stereo not shown) [A10]
17 | 3 | – | Cn1cc(-c2cc3nccc(Nc4ccc5scnc5c4)c3cc2P(C)(C)=O)cn1 [A11, (4-(benzo[d]thiazol-5-ylamino)-7-(1-methyl-1H-pyrazol-4-yl)quinolin-6-yl)dimethylphosphine oxide]
18 | 2.3 | – | CP(C)(=O)c1cc2c(Nc3ccc4scnc4c3)ccnc2cc1-c1cc[nH]n1 [A12]
19 | 8.7 | – | CP(C)(=O)c1cc2c(Nc3ccc4scnc4c3)ccnc2cc1F [A20]
20 | 1.5 | – | CP(C)(=O)c1cc2c(Nc3ccc4scnc4c3)ccnc2cc1OC1CCC1 [A21]
21 | 12 | – | CP(C)(=O)c1cc2c(Nc3ccc4scnc4c3)ccnc2cc1C1COC1 [A26, (4-(benzo[d]thiazol-5-ylamino)-7-(oxetan-3-yl)quinolin-6-yl)dimethylphosphine oxide]
22 | 3200 | low affinity | CP(C)(=O)c1cnc2nccc(Nc3ccc4scnc4c3)c2c1 [B1, (5-(benzo[d]thiazol-5-ylamino)-1,8-naphthyridin-3-yl)dimethylphosphine oxide]

More lines, now with the values behind:

Row | Structure (SMILES) | Kd [nM] | affinity with RIP2 kinase (in words)
23 | CP(C)(=O)c1ccc2nccc(Nc3ccc4scnc4c3)c2c1 [A1, (4-(benzo[d]thiazol-5-ylamino)quinolin-6-yl)dimethylphosphine oxide hydrochloride] | 28 | –
24 | Cc1ccc(O)cc1Nc1ccnc2ccc(P(C)(C)=O)cc12 [A2] | 89 | –
